From patent US20230111310A1, “CARBOXYLIC ACID DERIVATIVE-SUBSTITUTED IMINO ARYL COMPOUND, PREPARATION METHOD THEREFOR, HERBICIDAL COMPOSITION AND USE THEREOF” (Qingdao Kingagroot Chemical Compound Co., Ltd., priority 2020, published 2023)

Columns and labels:
Test in all cases: Weeding effect in post-emergence stage
Type in all cases: in vivo
Abutilon theophrasti = conditions: for Weeding effect in post-emergence stage, Abutilon theophrasti: level of fresh weight growth control rate; for Weeding effect in post-emergence stage, Abutilon theophrasti (level): fresh weight control rate level
In short: (§1)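 Compound, dissolved in acetone and diluted in water with Tween 80 plus methyl oleate EC (1.5 liter/ha), is sprayed onto 2-3 leaf potted plants. Rates span 7.5–500 g/ha. After 3 weeks of greenhouse culture, weeding effect is counted as the mean of triplicates.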

Digitaria sanguinalis = conditions: for Weeding effect in post-emergence stage, Digitaria sanguinalis: level of fresh weight growth control rate; for Weeding effect in post-emergence stage, Digitaria sanguinalis (level): fresh weight control rate level
In short: as §1

Setaria viridis = conditions: for Weeding effect in post-emergence stage, Setaria viridis: level of fresh weight growth control rate; for Weeding effect in post-emergence stage, Setaria viridis (level): fresh weight control rate level
In short: as §1

Eleusine indica = conditions: for Weeding effect in post-emergence stage, Eleusine indica: level of fresh weight growth control rate; for Weeding effect in post-emergence stage, Eleusine indica (level): fresh weight control rate level
In short: as §1

Alopecurus japonicus = conditions: for Weeding effect in post-emergence stage, Alopecurus japonicus: level of fresh weight growth control rate; for Weeding effect in post-emergence stage, Alopecurus japonicus (level): fresh weight control rate level
In short: as §1

Echinochloa crusgalli = conditions: for Weeding effect in post-emergence stage, Echinochloa crusgalli: level of fresh weight growth control rate; for Weeding effect in post-emergence stage, Echinochloa crusgalli (level): fresh weight control rate level
In short: as §1

## CCOC(=O)C(OC)O/N=C/c1cc(-n2c(=O)cc(C(F)(F)F)n(C)c2=O)c(F)cc1Cl (stereo not drawn) [Compound 322]
Abutilon theophrasti; Dose 120 g/ha
  Weeding effect in post-emergence stage, Abutilon theophrasti: 5 (Level 5: growth control rate is above 85%)
Digitaria sanguinalis; Dose 120 g/ha
  Weeding effect in post-emergence stage, Digitaria sanguinalis: 5 (Level 5: growth control rate is above 85%)
Setaria viridis; Dose 120 g/ha
  Weeding effect in post-emergence stage, Setaria viridis: 5 (Level 5: growth control rate is above 85%)
Eleusine indica; Dose 120 g/ha
  Weeding effect in post-emergence stage, Eleusine indica: 5 (Level 5: growth control rate is above 85%)
Alopecurus japonicus; Dose 120 g/ha
  Weeding effect in post-emergence stage, Alopecurus japonicus: 5 (Level 5: growth control rate is above 85%)
Echinochloa crusgalli; Dose 120 g/ha
  Weeding effect in post-emergence stage, Echinochloa crusgalli: 5 (Level 5: growth control rate is above 85%)

## COC(=O)C(C)O/N=C/c1cc(-n2c(=S)cc(C(F)(F)F)n(C)c2=O)c(F)cc1Br (racemic) [Compound 388]
Abutilon theophrasti; Dose 15 g/ha
  Weeding effect in post-emergence stage, Abutilon theophrasti (level): 5 (Level 5: growth control rate is above 85%)
Digitaria sanguinalis; Dose 15 g/ha
  Weeding effect in post-emergence stage, Digitaria sanguinalis (level): 5 (Level 5: growth control rate is above 85%)
Setaria viridis; Dose 15 g/ha
  Weeding effect in post-emergence stage, Setaria viridis (level): 5 (Level 5: growth control rate is above 85%)
Eleusine indica; Dose 15 g/ha
  Weeding effect in post-emergence stage, Eleusine indica (level): 5 (Level 5: growth control rate is above 85%)
Alopecurus japonicus; Dose 15 g/ha
  Weeding effect in post-emergence stage, Alopecurus japonicus (level): 4 (Level 4: growth control rate is greater than or equal to 60% and less than 85%)
Echinochloa crusgalli; Dose 15 g/ha
  Weeding effect in post-emergence stage, Echinochloa crusgalli (level): 5 (Level 5: growth control rate is above 85%)

## COC(=O)CCNC(=O)[C@@H](C)O/N=C/c1cc(-n2c(=O)cc(C(F)(F)F)n(C)c2=O)c(F)cc1Cl [416(R)]
Abutilon theophrasti; Dose 15 g/ha
  Weeding effect in post-emergence stage, Abutilon theophrasti (level): 5 (Level 5: growth control rate is above 85%)
Digitaria sanguinalis; Dose 15 g/ha
  Weeding effect in post-emergence stage, Digitaria sanguinalis (level): 5 (Level 5: growth control rate is above 85%)
Setaria viridis; Dose 15 g/ha
  Weeding effect in post-emergence stage, Setaria viridis (level): 5 (Level 5: growth control rate is above 85%)
Eleusine indica; Dose 15 g/ha
  Weeding effect in post-emergence stage, Eleusine indica (level): 5 (Level 5: growth control rate is above 85%)
Alopecurus japonicus; Dose 15 g/ha
  Weeding effect in post-emergence stage, Alopecurus japonicus (level): 5 (Level 5: growth control rate is above 85%)
Echinochloa crusgalli; Dose 15 g/ha
  Weeding effect in post-emergence stage, Echinochloa crusgalli (level): 5 (Level 5: growth control rate is above 85%)

## COC(=O)C(O/N=C/c1cc(-n2c(=O)cc(C(F)(F)F)n(C)c2=O)c(F)cc1Cl)C1CCCCC1 (stereo not drawn) [Compound 490]
Abutilon theophrasti; Dose 15 g/ha
  Weeding effect in post-emergence stage, Abutilon theophrasti (level): 5 (Level 5: growth control rate is above 85%)
Digitaria sanguinalis; Dose 15 g/ha
  Weeding effect in post-emergence stage, Digitaria sanguinalis (level): 5 (Level 5: growth control rate is above 85%)
Setaria viridis; Dose 15 g/ha
  Weeding effect in post-emergence stage, Setaria viridis (level): 5 (Level 5: growth control rate is above 85%)
Eleusine indica; Dose 15 g/ha
  Weeding effect in post-emergence stage, Eleusine indica (level): 5 (Level 5: growth control rate is above 85%)
Alopecurus japonicus; Dose 15 g/ha
  Weeding effect in post-emergence stage, Alopecurus japonicus (level): 5 (Level 5: growth control rate is above 85%)
Echinochloa crusgalli; Dose 15 g/ha
  Weeding effect in post-emergence stage, Echinochloa crusgalli (level): 5 (Level 5: growth control rate is above 85%)

## COC(=O)C(C)O/N=C/c1cc(-n2c(=O)cc(C(F)(F)F)n(C)c2=O)c(F)cc1C(F)(F)F (stereo not drawn) [Compound 342]
Abutilon theophrasti; Dose 15 g/ha
  Weeding effect in post-emergence stage, Abutilon theophrasti: 5 (Level 5: growth control rate is above 85%)
Digitaria sanguinalis; Dose 15 g/ha
  Weeding effect in post-emergence stage, Digitaria sanguinalis: 5 (Level 5: growth control rate is above 85%)
Setaria viridis; Dose 15 g/ha
  Weeding effect in post-emergence stage, Setaria viridis: 5 (Level 5: growth control rate is above 85%)
Eleusine indica; Dose 15 g/ha
  Weeding effect in post-emergence stage, Eleusine indica: 5 (Level 5: growth control rate is above 85%)
Alopecurus japonicus; Dose 15 g/ha
  Weeding effect in post-emergence stage, Alopecurus japonicus: 4 (Level 4: growth control rate is greater than or equal to 60% and less than 85%)
Echinochloa crusgalli; Dose 15 g/ha
  Weeding effect in post-emergence stage, Echinochloa crusgalli: 5 (Level 5: growth control rate is above 85%)

## COCCOC(=O)[C@@H](C)O/N=C/c1cc(-n2c(=O)n(C)c(=S)n(C)c2=O)c(F)cc1Cl [14(R)]
Abutilon theophrasti; Dose 15 g/ha
  Weeding effect in post-emergence stage, Abutilon theophrasti: 5 (Level 5: growth control rate is above 85%)
Digitaria sanguinalis; Dose 15 g/ha
  Weeding effect in post-emergence stage, Digitaria sanguinalis: 5 (Level 5: growth control rate is above 85%)
Setaria viridis; Dose 15 g/ha
  Weeding effect in post-emergence stage, Setaria viridis: 5 (Level 5: growth control rate is above 85%)
Eleusine indica; Dose 15 g/ha
  Weeding effect in post-emergence stage, Eleusine indica: 5 (Level 5: growth control rate is above 85%)
Alopecurus japonicus; Dose 15 g/ha
  Weeding effect in post-emergence stage, Alopecurus japonicus: 4 (Level 4: growth control rate is greater than or equal to 60% and less than 85%)
Echinochloa crusgalli; Dose 15 g/ha
  Weeding effect in post-emergence stage, Echinochloa crusgalli: 5 (Level 5: growth control rate is above 85%)

## CCC(CC)=NOC(=O)C(C)O/N=C/c1cc(-n2c(=O)cc(C(F)(F)F)n(C)c2=O)c(F)cc1Cl (stereo not drawn) [Compound 251]
Abutilon theophrasti; Dose 15 g/ha
  Weeding effect in post-emergence stage, Abutilon theophrasti: 5 (Level 5: growth control rate is above 85%)
Digitaria sanguinalis; Dose 15 g/ha
  Weeding effect in post-emergence stage, Digitaria sanguinalis: 5 (Level 5: growth control rate is above 85%)
Setaria viridis; Dose 15 g/ha
  Weeding effect in post-emergence stage, Setaria viridis: 5 (Level 5: growth control rate is above 85%)
Eleusine indica; Dose 15 g/ha
  Weeding effect in post-emergence stage, Eleusine indica: 5 (Level 5: growth control rate is above 85%)
Alopecurus japonicus; Dose 15 g/ha
  Weeding effect in post-emergence stage, Alopecurus japonicus: 5 (Level 5: growth control rate is above 85%)
Echinochloa crusgalli; Dose 15 g/ha
  Weeding effect in post-emergence stage, Echinochloa crusgalli: 5 (Level 5: growth control rate is above 85%)

## COC(=O)CSC(=O)C(C)O/N=C/c1cc(-n2c(=O)cc(C(F)(F)F)n(C)c2=O)c(F)cc1Cl (stereo not drawn) [Compound 406]
Abutilon theophrasti; Dose 15 g/ha
  Weeding effect in post-emergence stage, Abutilon theophrasti (level): 5 (Level 5: growth control rate is above 85%)
Digitaria sanguinalis; Dose 15 g/ha
  Weeding effect in post-emergence stage, Digitaria sanguinalis (level): 5 (Level 5: growth control rate is above 85%)
Setaria viridis; Dose 15 g/ha
  Weeding effect in post-emergence stage, Setaria viridis (level): 5 (Level 5: growth control rate is above 85%)
Eleusine indica; Dose 15 g/ha
  Weeding effect in post-emergence stage, Eleusine indica (level): 5 (Level 5: growth control rate is above 85%)
Alopecurus japonicus; Dose 15 g/ha
  Weeding effect in post-emergence stage, Alopecurus japonicus (level): 4 (Level 4: growth control rate is greater than or equal to 60% and less than 85%)
Echinochloa crusgalli; Dose 15 g/ha
  Weeding effect in post-emergence stage, Echinochloa crusgalli (level): 5 (Level 5: growth control rate is above 85%)

## COC(=O)C(C)ON=Cc1nc(-n2c(=O)cc(C(F)(F)F)n(C)c2=O)c(F)cc1Cl [504(R)]
Abutilon theophrasti; Dose 15 g/ha
  Weeding effect in post-emergence stage, Abutilon theophrasti (level): 5 (Level 5: growth control rate is above 85%)
Digitaria sanguinalis; Dose 15 g/ha
  Weeding effect in post-emergence stage, Digitaria sanguinalis (level): 5 (Level 5: growth control rate is above 85%)
Setaria viridis; Dose 15 g/ha
  Weeding effect in post-emergence stage, Setaria viridis (level): 5 (Level 5: growth control rate is above 85%)
Eleusine indica; Dose 15 g/ha
  Weeding effect in post-emergence stage, Eleusine indica (level): 5 (Level 5: growth control rate is above 85%)
Alopecurus japonicus; Dose 15 g/ha
  Weeding effect in post-emergence stage, Alopecurus japonicus (level): 5 (Level 5: growth control rate is above 85%)
Echinochloa crusgalli; Dose 15 g/ha
  Weeding effect in post-emergence stage, Echinochloa crusgalli (level): 5 (Level 5: growth control rate is above 85%)

## CCCC(O/N=C/c1cc(-n2c(=O)cc(C(F)(F)F)n(C)c2=O)c(F)cc1Cl)C(=O)OC (stereo not drawn) [Compound 316]
Abutilon theophrasti; Dose 15 g/ha
  Weeding effect in post-emergence stage, Abutilon theophrasti: 5 (Level 5: growth control rate is above 85%)
Digitaria sanguinalis; Dose 15 g/ha
  Weeding effect in post-emergence stage, Digitaria sanguinalis: 5 (Level 5: growth control rate is above 85%)
Setaria viridis; Dose 15 g/ha
  Weeding effect in post-emergence stage, Setaria viridis: 5 (Level 5: growth control rate is above 85%)
Eleusine indica; Dose 15 g/ha
  Weeding effect in post-emergence stage, Eleusine indica: 5 (Level 5: growth control rate is above 85%)
Alopecurus japonicus; Dose 15 g/ha
  Weeding effect in post-emergence stage, Alopecurus japonicus: 5 (Level 5: growth control rate is above 85%)
Echinochloa crusgalli; Dose 15 g/ha
  Weeding effect in post-emergence stage, Echinochloa crusgalli: 5 (Level 5: growth control rate is above 85%)

## C[C@@H](O/N=C/c1cc(-n2c(=O)n(C)c(=S)n(C)c2=O)c(F)cc1Cl)C(=O)O [438(R)]
Abutilon theophrasti; Dose 30 g/ha
  Weeding effect in post-emergence stage, Abutilon theophrasti (level): 5 (Level 5: growth control rate is above 85%)
Digitaria sanguinalis; Dose 30 g/ha
  Weeding effect in post-emergence stage, Digitaria sanguinalis (level): 5 (Level 5: growth control rate is above 85%)
Setaria viridis; Dose 30 g/ha
  Weeding effect in post-emergence stage, Setaria viridis (level): 5 (Level 5: growth control rate is above 85%)
Eleusine indica; Dose 30 g/ha
  Weeding effect in post-emergence stage, Eleusine indica (level): 5 (Level 5: growth control rate is above 85%)
Alopecurus japonicus; Dose 30 g/ha
  Weeding effect in post-emergence stage, Alopecurus japonicus (level): 5 (Level 5: growth control rate is above 85%)
Echinochloa crusgalli; Dose 30 g/ha
  Weeding effect in post-emergence stage, Echinochloa crusgalli (level): 5 (Level 5: growth control rate is above 85%)
